Experimental data published in patent US11291627B1 (Ocular Therapeutix, Inc., priority 2020, dated 2022).
Like-named read-outs stand apart in the source and are kept apart here.

How the values were obtained:
[1] = Example 3.2 proof-of-concept PK study: cyclosporine tear fluid concentration and drug released, beagles (Table 3.2); type: in vivo, beagle dogs; settings: 0.44 mg dose SG insert, over 32 days, assuming consistent daily release
Description: Inserts were removed at 32 days to determine the amount of remaining drug compared to the administered dose.

[2] = 0.7 mg dose SAZ insert, beagles
[3] = cyclosporine specification provided by the supplier; cited from earlier work

CC=CCC(C)C(O)C1C(=O)NC(CC)C(=O)N(C)CC(=O)N(C)C(CC(C)C)C(=O)NC(C(C)C)C(=O)N(C)C(CC(C)C)C(=O)NC(C)C(=O)NC(C)C(=O)N(C)C(CC(C)C)C(=O)N(C)C(CC(C)C)C(=O)N(C)C(C(C)C)C(=O)N1C (stereo not drawn) [Cyclosporine, 30-ethyl-33-(1-hydroxy-2-methylhex-4-enyl)-1,4,7,10,12,15,19,25,28-nonamethyl-6,9,18,24-tetrakis(2-methylpropyl)-3,21-di(propan-2-yl)-1,4,7,10,13,16,19,22,25,28,31-undecazacyclotritriacontane-2,5,8,11,14,17,20,23,26,29,32-undecone]
estimated daily delivered dose [1]: 6.3 µg/day
average amount of cyclosporine released in 6 weeks ([2]; inserts removed at 6 weeks): 0.37 mg
estimated daily delivered dose ([2]; over 6 weeks, assuming consistent daily release): 8.8 µg/day
D10 [3]: 0.5 μm
D50 [3]: 2.1 μm
D90 [3]: 7.5 μm
